# In patent publication US12252475B2, “Crystal forms of immunomodulators” (Curis, Inc., priority 2017, dated 2025):
# Like-named read-outs stand apart in the source and are kept apart here.
# Assays:
# Type in all cases: physicochemical
# [1] = Solid stability of anhydrous crystal Form A on storage (XRPD form, TGA, HPLC purity); conditions: for HPLC Purity (area %): solid
# Method: (§1) Purity analysis was performed on an Agilent HP1100 series system equipped with a diode array detector and using ChemStation software vB.04.03 using the method detailed below in Table 3.
# Thermogravimetric analysis (TGA) data were collected using a TA Q500/Q5000 TGA from TA Instruments. Differential scanning calorimetry (DSC) was performed using a TA Q200/Q2000 DSC from TA Instruments.
# About 40 mg of a sample of formula (I) Form A was kept at each corresponding condition for one month without significant changes. […] No significant effect of the shoulder peaks on form or HPLC purity was observed.
# Samples of formula (I) anhydrous crystalline Form A were stored as solids at 25° C./60% RH, 30° C./˜56%, and 40° C./75% RH for the time periods listed below. The samples were prepared in duplicate with an offset of 2 weeks. Each replicate was stored in a different container.
# [2] = Solution stability of Form A in water/organic solvent mixtures (HPLC purity); conditions: for HPLC purity, API (RRT 1.00): about 10 mg/mL; for chemical purity in solution: time 0, across water/organic solvent mixtures
# Method: as §1
# Samples of formula (I) anhydrous crystalline Form A were stored as solutions in water mixed with acetonitrile, tetrahydrofuran, isopropyl alcohol, or ethanol at room temperature and 35° C. for 7-8 days. The sample concentration was about 10 mg/mL and was kept stirring.
# [3] = Solubility in simulated gastric fluid and pH-adjusted water at room temperature; conditions: thermodynamic from solid
# Description: The pH values of the aqueous solutions after the solubility test were 5.13 and 5.15, respectively.
# [4] = Equilibrium solubility in water; conditions: for Final Form / solubility at 6 h: Water; for Final Form: solids checked by XRPD; for solubility at 6 h: thermodynamic from solid, equilibrated 6 hrs, HPLC
# Method: Equilibrium solubility of formula (I) anhydrous Form A was measured in the water at 20° C. and 30° C. All samples were equilibrated at temperature for 6 hrs, and the solubility of supernatant was measured by HPLC, while the solids were checked by XRPD. (See Table 10.)
# [5] = Dynamic vapor sorption (DVS)
# [6] = Seed (after ground), 5° C., sealed
smiles,measurement,setting,value
CC(O)[C@H](NC(=O)N[C@@H](CC(N)=O)c1nc([C@@H](N)CO)no1)C(=O)O (stereo in doubt) [Form A],Final Form,"[1]; 25° C., 60% RH, 1 month",Form A
same,TGA (%),"[1]; 25° C., 60% RH, 1 month",0.60%
same,Final Form,"[1]; 25° C., 60% RH, 3 months",Form A
same,TGA (%),"[1]; 25° C., 60% RH, 3 months",2.8%
same,Final Form,"[1]; 40° C., 75% RH, 1 month",Form A
same,TGA (%),"[1]; 40° C., 75% RH, 1 month",1.0%
same,Final Form,"[1]; 40° C., 75% RH, 3 months",Form A
same,TGA (%),"[1]; 40° C., 75% RH, 3 months",1.9%
same,Final Form,"[1]; 60° C., sealed, 1 month",Form A
same,TGA (%),"[1]; 60° C., sealed, 1 month",0.6%
same,Final Form,"[1]; 60° C., sealed, 3 months",Form A
same,TGA (%),"[1]; 60° C., sealed, 3 months",2.1%
same,Final Form,[1]; Initial,Form A
same,TGA (%),[1]; Initial,0.40%
same,Final Form,[1]; [6],Form A
same,TGA (%),[1]; [6],0.4%
same,solid form and particle morphology after storage,"[1]; one month and three months at 25° C./60% RH, 40° C./75% RH, and 60° C.",remained unchanged
same,degradation (chemical purity of solid sample) after storage,"[1]; solid sample of about 40 mg, storage for one month",no significant degradation was observed
same,HPLC Purity (area %),"[1]; 25° C., 60% RH, 1 month",99.83 area %
same,HPLC Purity (area %),"[1]; 25° C., 60% RH, 3 months",99.80 area %
same,HPLC Purity (area %),"[1]; 40° C., 75% RH, 1 month",99.81 area %
same,HPLC Purity (area %),"[1]; 40° C., 75% RH, 3 months",99.79 area %
same,HPLC Purity (area %),"[1]; 60° C., sealed, 1 month",99.85 area %
same,HPLC Purity (area %),"[1]; 60° C., sealed, 3 months",99.74 area %
same,HPLC Purity (area %),[1]; Initial,99.86 area %
same,"HPLC purity, API (RRT 1.00)","[2]; 35° C., ACN/H2O (1:1, v/v), 0 h",99.58%
same,"HPLC purity, API (RRT 1.00)","[2]; 35° C., ACN/H2O (1:1, v/v), 4 h",99.44%
same,"HPLC purity, API (RRT 1.00)","[2]; 35° C., ACN/H2O (1:1, v/v), 24 h",98.42%
same,"HPLC purity, API (RRT 1.00)","[2]; 35° C., EtOH/H2O (1:1, v/v), 0 h",99.58%
same,"HPLC purity, API (RRT 1.00)","[2]; 35° C., EtOH/H2O (1:1, v/v), 4 h",99.47%
same,"HPLC purity, API (RRT 1.00)","[2]; 35° C., EtOH/H2O (1:1, v/v), 24 h",99.11%
same,"HPLC purity, API (RRT 1.00)","[2]; 35° C., IPA/H2O (1:2, v/v), 0 h",99.57%
same,"HPLC purity, API (RRT 1.00)","[2]; 35° C., IPA/H2O (1:2, v/v), 4 h",99.35%
same,"HPLC purity, API (RRT 1.00)","[2]; 35° C., IPA/H2O (1:2, v/v), 24 h",99.21%
same,"HPLC purity, API (RRT 1.00)","[2]; 35° C., THF/H2O (1:1, v/v), 0 h",99.56%
same,"HPLC purity, API (RRT 1.00)","[2]; 35° C., THF/H2O (1:1, v/v), 4 h",99.37%
same,"HPLC purity, API (RRT 1.00)","[2]; 35° C., THF/H2O (1:1, v/v), 24 h",98.30%
same,chemical purity in solution,[2]; 35° C.,about 99.6%
same,"HPLC purity, API (RRT 1.00)","[2]; RT, ACN/H2O (1:1, v/v), 0 h",99.65%
same,"HPLC purity, API (RRT 1.00)","[2]; RT, ACN/H2O (1:1, v/v), 4 h",99.51%
same,"HPLC purity, API (RRT 1.00)","[2]; RT, ACN/H2O (1:1, v/v), 24 h",99.24%
same,"HPLC purity, API (RRT 1.00)","[2]; RT, EtOH/H2O (1:1, v/v), 0 h",99.58%
same,"HPLC purity, API (RRT 1.00)","[2]; RT, EtOH/H2O (1:1, v/v), 4 h",99.47%
same,"HPLC purity, API (RRT 1.00)","[2]; RT, EtOH/H2O (1:1, v/v), 24 h",99.11%
same,"HPLC purity, API (RRT 1.00)","[2]; RT, IPA/H2O (1:2, v/v), 0 h",99.59%
same,"HPLC purity, API (RRT 1.00)","[2]; RT, IPA/H2O (1:2, v/v), 4 h",99.52%
same,"HPLC purity, API (RRT 1.00)","[2]; RT, IPA/H2O (1:2, v/v), 24 h",99.21%
same,"HPLC purity, API (RRT 1.00)","[2]; RT, THF/H2O (1:1, v/v), 0 h",99.64%
same,"HPLC purity, API (RRT 1.00)","[2]; RT, THF/H2O (1:1, v/v), 4 h",99.47%
same,"HPLC purity, API (RRT 1.00)","[2]; RT, THF/H2O (1:1, v/v), 24 h",99.19%
same,chemical purity in solution,[2]; room temperature,about 99.6%
same,solubility,"[3]; simulated gastric fluid (SGF), simulated gastric fluid, read-out: solubility in simulated gastric fluid (SGF)",> 114 mg/mL
same,solubility,"[3]; water with pH adjusted by NaOH and HCl, aqueous buffer, pH 7.08 (pH 5.13 after test), read-out: solubility in water solution with pH adjusted by NaOH and HCl",87.5 to 117 mg/mL
same,solubility,"[3]; water with pH adjusted by NaOH and HCl, aqueous buffer, pH 9.14 (pH 5.15 after test), read-out: solubility in water solution with pH adjusted by NaOH and HCl",83.5 to 111 mg/mL
same,Final Form,[4]; 20° C.,Form A
same,Final Form,[4]; 30° C.,Form A
same,form change during solubility testing,"[4]; XRPD, FIG. 9",No form change was observed
same,solubility at 6 h,[4]; 20° C.,125 mg/mL
same,solubility at 6 h,[4]; 30° C.,137 mg/mL
same,hygroscopicity,"[5]; DVS, up to 80% RH",slightly hygroscopic
same,form change during DVS testing,"[5]; XRPD before and after DVS, FIG. 11",No form change was observed
same,mass change in DVS,[5]; up to 80% RH,about 0.66%
